Measurements: BindingDB's records for PubMed 20126400 (University of Oklahoma, 2010)

Experiments:
Test in all cases: Ray2010 Assay 74
[1] = biological target: 5-hydroxytryptamine receptor 6 (Homo sapiens, UniProt P50406)
Text: (§1) Table S2 shows raw Ki data for the current study combined with data collected from the literature for the ten additional compounds.

[2] = biological target: T1, Gamma-aminobutyric acid receptor subunit alpha-1 (Homo sapiens, UniProt P14867)
T1 sequence (P14867 whole entry): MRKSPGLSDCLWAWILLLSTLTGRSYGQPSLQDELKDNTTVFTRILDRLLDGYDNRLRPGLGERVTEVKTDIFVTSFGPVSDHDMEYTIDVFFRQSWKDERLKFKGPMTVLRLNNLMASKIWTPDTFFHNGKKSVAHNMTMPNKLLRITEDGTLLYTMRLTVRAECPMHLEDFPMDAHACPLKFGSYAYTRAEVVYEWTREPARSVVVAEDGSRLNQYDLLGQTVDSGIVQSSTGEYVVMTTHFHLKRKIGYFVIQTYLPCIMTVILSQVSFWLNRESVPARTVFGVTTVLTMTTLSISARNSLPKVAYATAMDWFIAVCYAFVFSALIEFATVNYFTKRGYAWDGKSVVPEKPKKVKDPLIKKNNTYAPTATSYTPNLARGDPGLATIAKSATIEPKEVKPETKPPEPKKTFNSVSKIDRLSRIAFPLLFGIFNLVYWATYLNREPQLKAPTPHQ
Text: as §1

[3] = biological target: Delta-type opioid receptor (Homo sapiens, UniProt P41143)
Text: as §1

Mu-type opioid receptor = Mu-type opioid receptor (Homo sapiens, UniProt P35372)
Text: as §1

[4] = biological target: 5-hydroxytryptamine receptor 1E (Homo sapiens, UniProt P28566)
Text: as §1

[5] = biological target: Glutamate receptor ionotropic, NMDA 2A (Homo sapiens, UniProt Q12879)
Text: as §1

[6] = biological target: 5-hydroxytryptamine receptor 1D (Homo sapiens, UniProt P28221)
Text: as §1

[7] = biological target: T2, 5-hydroxytryptamine receptor 3A (Homo sapiens, UniProt P46098)
T2 sequence (P46098 whole entry): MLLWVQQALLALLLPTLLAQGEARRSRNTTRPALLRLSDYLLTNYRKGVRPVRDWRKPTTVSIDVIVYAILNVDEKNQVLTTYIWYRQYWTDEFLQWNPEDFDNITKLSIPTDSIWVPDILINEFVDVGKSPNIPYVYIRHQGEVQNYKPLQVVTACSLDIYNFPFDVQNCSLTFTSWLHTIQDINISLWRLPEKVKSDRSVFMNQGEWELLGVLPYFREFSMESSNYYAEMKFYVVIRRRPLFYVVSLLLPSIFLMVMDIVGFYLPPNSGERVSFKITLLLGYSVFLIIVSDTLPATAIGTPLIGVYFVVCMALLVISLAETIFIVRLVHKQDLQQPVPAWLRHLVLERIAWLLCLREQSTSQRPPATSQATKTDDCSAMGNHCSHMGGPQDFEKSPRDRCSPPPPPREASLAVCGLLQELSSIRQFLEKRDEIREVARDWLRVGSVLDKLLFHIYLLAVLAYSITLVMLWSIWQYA
Text: as §1

[8] = biological target: 5-hydroxytryptamine receptor 2A (Homo sapiens, UniProt P28223)
Text: as §1

[9] = biological target: 5-hydroxytryptamine receptor 2B (Homo sapiens, UniProt P41595)
Text: as §1

Histamine H4 receptor = Histamine H4 receptor (Homo sapiens, UniProt Q9H3N8)
Text: as §1

[10] = biological target: T3, Alpha-2A adrenergic receptor (Homo sapiens, UniProt P08913)
T3 sequence (P08913 whole entry): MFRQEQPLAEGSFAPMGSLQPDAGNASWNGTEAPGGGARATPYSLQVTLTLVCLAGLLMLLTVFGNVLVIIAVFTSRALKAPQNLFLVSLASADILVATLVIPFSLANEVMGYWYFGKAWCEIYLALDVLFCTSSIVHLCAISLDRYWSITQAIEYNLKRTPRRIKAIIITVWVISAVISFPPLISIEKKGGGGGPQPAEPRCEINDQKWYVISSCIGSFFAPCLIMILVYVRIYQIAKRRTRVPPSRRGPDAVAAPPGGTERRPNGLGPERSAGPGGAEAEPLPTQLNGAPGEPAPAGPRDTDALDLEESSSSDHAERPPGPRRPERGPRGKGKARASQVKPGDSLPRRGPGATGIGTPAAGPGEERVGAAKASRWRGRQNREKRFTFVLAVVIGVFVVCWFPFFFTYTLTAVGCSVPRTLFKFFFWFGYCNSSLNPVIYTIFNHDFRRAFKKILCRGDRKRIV
Text: as §1

[11] = biological target: Sodium-dependent serotonin transporter (Homo sapiens, UniProt P31645)
Text: as §1

[12] = biological target: T4, 5-hydroxytryptamine receptor 1A (Homo sapiens, UniProt P08908)
T4 sequence (P08908 whole entry): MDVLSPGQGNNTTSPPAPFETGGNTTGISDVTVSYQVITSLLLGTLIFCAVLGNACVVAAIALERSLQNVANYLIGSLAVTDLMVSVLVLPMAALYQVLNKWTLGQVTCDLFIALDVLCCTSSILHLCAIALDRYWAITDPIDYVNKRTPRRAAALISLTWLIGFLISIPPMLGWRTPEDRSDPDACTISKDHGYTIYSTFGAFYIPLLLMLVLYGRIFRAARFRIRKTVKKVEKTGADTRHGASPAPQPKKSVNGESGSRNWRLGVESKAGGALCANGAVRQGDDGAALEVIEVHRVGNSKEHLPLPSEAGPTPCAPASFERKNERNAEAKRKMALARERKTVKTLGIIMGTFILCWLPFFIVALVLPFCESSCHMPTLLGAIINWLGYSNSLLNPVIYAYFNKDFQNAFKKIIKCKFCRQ
Text: as §1

D(4) dopamine receptor = biological target: T5, D(4) dopamine receptor (Homo sapiens, UniProt P21917)
T5 sequence (P21917 whole entry): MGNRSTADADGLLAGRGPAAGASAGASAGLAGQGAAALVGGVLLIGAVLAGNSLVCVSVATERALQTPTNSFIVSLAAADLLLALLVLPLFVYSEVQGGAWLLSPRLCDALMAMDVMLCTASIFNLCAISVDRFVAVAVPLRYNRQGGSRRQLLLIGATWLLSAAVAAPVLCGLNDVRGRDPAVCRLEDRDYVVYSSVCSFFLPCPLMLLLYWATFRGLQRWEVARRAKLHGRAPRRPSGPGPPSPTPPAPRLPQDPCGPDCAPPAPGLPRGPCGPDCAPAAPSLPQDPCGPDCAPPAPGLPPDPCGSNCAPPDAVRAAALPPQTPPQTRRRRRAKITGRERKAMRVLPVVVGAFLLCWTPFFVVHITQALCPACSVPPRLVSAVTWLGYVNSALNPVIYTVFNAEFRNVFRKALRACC
Text: as §1

Chain of Mu-type opioid receptor (P35372 whole entry): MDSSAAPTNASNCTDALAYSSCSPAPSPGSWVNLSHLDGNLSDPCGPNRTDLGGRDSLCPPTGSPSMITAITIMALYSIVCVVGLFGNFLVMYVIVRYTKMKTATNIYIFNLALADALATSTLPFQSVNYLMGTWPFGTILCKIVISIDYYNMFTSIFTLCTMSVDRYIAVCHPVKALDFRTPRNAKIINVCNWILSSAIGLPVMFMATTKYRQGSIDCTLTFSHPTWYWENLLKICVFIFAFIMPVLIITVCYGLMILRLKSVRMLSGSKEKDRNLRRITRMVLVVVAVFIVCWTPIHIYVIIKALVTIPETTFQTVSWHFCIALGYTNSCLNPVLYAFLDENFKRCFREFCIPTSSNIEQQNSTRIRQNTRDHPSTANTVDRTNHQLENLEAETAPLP
Chain of Delta-type opioid receptor (P41143 whole entry): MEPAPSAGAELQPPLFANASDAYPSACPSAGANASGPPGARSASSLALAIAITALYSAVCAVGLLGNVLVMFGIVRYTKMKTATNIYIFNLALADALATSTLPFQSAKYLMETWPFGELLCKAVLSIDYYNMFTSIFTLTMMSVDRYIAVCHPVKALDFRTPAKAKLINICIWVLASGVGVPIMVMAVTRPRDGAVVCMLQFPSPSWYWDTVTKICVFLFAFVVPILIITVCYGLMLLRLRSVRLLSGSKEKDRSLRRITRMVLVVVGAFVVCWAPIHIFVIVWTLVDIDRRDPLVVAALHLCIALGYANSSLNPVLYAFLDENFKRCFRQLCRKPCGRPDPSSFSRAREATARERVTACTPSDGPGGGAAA
Chain of 5-hydroxytryptamine receptor 1E (P28566 whole entry): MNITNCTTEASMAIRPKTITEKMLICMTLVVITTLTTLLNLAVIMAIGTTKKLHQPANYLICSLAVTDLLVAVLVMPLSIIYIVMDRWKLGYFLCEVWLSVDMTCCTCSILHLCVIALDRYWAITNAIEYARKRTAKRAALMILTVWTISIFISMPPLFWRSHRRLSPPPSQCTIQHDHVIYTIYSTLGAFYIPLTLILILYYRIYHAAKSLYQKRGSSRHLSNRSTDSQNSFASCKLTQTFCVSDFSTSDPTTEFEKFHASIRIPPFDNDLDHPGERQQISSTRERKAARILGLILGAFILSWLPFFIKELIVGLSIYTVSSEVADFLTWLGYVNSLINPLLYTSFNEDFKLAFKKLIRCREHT
Chain of Sodium-dependent serotonin transporter (P31645 whole entry): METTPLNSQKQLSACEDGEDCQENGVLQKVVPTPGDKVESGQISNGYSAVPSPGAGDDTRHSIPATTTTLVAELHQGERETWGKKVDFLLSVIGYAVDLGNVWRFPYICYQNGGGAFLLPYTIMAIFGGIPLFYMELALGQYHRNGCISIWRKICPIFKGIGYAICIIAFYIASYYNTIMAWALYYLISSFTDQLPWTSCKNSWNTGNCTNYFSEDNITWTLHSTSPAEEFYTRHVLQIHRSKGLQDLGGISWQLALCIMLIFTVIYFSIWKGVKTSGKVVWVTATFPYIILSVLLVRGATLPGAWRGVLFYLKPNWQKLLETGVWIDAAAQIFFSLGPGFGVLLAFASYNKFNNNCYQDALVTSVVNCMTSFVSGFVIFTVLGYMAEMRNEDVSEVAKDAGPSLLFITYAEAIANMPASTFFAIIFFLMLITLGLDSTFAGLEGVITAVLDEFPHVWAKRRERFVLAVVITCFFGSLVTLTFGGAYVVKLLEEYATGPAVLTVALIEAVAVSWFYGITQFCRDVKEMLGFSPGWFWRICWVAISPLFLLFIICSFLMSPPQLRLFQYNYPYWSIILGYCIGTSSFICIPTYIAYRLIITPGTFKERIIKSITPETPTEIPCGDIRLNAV
Chain of 5-hydroxytryptamine receptor 2A (P28223 whole entry): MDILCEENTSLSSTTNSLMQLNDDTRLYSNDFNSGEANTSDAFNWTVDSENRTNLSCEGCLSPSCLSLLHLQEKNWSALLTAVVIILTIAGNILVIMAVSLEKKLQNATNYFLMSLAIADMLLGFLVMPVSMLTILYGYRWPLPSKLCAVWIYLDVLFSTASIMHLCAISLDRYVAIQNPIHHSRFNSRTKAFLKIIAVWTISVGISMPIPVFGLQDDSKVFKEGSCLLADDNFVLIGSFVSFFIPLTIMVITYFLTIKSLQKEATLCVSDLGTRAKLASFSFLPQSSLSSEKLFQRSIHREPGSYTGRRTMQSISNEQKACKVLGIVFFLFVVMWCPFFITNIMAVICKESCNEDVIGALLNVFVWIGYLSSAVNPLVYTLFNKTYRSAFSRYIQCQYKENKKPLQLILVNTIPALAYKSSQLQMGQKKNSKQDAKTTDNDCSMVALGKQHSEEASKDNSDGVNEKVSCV
Chain of 5-hydroxytryptamine receptor 2B (P41595 whole entry): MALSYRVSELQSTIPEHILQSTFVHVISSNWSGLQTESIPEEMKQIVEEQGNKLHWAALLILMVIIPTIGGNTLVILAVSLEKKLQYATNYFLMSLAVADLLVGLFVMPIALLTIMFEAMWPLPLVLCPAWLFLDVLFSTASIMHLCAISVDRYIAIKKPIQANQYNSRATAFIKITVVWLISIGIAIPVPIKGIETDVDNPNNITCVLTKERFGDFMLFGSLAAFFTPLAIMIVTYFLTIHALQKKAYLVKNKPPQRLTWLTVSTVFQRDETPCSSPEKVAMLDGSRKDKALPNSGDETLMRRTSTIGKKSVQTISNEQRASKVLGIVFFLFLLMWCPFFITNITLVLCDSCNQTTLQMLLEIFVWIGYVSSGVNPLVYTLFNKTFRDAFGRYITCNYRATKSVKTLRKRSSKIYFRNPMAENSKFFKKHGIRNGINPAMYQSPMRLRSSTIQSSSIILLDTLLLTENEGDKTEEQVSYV
Chain of 5-hydroxytryptamine receptor 6 (P50406 whole entry): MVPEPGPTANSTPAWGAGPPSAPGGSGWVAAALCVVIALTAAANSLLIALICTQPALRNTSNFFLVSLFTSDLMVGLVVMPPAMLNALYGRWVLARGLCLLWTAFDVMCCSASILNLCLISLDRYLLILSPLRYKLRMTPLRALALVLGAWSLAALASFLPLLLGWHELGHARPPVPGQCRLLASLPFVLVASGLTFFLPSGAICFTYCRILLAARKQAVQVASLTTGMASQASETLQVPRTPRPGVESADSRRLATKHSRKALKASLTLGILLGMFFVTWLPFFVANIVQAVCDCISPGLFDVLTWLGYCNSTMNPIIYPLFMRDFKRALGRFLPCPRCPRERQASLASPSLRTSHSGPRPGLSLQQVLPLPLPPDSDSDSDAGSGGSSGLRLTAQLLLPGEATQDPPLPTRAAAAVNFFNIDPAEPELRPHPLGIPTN
Chain of 5-hydroxytryptamine receptor 1D (P28221 whole entry): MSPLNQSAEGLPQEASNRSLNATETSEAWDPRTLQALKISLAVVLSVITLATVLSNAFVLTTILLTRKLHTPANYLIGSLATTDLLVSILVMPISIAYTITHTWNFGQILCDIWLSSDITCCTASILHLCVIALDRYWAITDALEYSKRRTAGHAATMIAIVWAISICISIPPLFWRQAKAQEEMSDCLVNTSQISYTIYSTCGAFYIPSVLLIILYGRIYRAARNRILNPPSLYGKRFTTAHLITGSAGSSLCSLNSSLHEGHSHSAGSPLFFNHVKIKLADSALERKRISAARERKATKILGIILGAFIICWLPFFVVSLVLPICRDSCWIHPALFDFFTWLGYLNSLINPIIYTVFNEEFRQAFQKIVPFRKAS
Chain of Histamine H4 receptor (Q9H3N8 whole entry): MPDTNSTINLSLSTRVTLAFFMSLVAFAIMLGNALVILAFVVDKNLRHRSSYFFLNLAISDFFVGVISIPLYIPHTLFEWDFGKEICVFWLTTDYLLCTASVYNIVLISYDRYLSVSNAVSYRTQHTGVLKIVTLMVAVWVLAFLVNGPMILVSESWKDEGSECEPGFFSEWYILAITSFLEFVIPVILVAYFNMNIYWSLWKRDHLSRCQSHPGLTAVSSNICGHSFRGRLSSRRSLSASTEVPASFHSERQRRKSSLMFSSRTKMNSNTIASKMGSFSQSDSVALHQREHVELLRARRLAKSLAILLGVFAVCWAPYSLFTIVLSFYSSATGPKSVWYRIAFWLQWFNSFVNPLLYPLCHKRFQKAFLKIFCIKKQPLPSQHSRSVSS

SMILES	Ki [1] [µM]	Ki [2] [µM]	Ki [3] [µM]	Ki (Mu-type opioid receptor) [µM]	Ki [4] [µM]	Ki [5] [µM]	Ki [6] [µM]	Ki [7] [µM]	Ki [8] [µM]	Ki [9] [µM]	Ki (Histamine H4 receptor) [µM]	Ki [10] [µM]	Ki [11] [µM]	Ki [12] [µM]	Ki (D(4) dopamine receptor) [µM]
CCOc1cc(OC)c(CC(C)N)cc1OC (stereo unspecified)	> 10	> 10	> 10	> 10	> 10	> 10	> 10	> 10	3.95	0.0645	> 10	> 10	> 10	> 10	> 10
COc1cc(CC(C)N)cc(OC)c1OC (stereo unspecified)	> 10	> 10	> 10	> 10	3.37	> 10	3.03	> 10	> 10	0.477	> 10	2.07	> 10	1.68	> 10
COc1cc(CCN)c(OC)cc1Br	0.32	> 10	> 10	> 10	0.12	> 10	0.0263	> 10	0.0276	0.0135	> 10	0.309	> 10	0.241	> 10
CCc1cc(OC)c(CC(C)N)cc1OC (stereo unspecified)	> 10	> 10	> 10	> 10	3.55	> 10	6.62	> 10	0.0273	0.0288	> 10	1.28	> 10	0.0144	> 10
CCSc1cc(OC)c(CC(N)CC)cc1OC (stereo unspecified) [1-(4-Ethylsulfanyl-2,5-dimethoxy-benzyl)-propylamine]	> 10	> 10	> 10	> 10	9.88	> 10	> 10	> 10	0.274	0.0581	> 10	> 10	> 10	5.34	> 10
CCc1cc(OC)c(CCN)cc1OC [2-(2,5-dimethoxy-4-ethylphenyl)ethylamine]	2.97	> 10	> 10	> 10	0.626	> 10	0.0732	> 10	0.0439	0.0251	> 10	0.49	> 10	–	> 10
COc1cc(CC(C)N)c(OC)cc1Br (stereo not drawn) [2-(4-Bromo-2,5-dimethoxy-phenyl)-1-methyl-ethylamine((-)-DOB)]	5.53	> 10	> 10	> 10	1.43	> 10	0.635	> 10	–	0.0039	> 10	4.27	8.54	2.55	> 10
CCSc1cc(OC)c(CCN)cc1OC [2C-T-2]	1.36	> 10	> 10	> 10	0.415	> 10	0.0859	> 10	0.0399	0.006	> 10	0.73	> 10	0.381	> 10
COc1ccc2[nH]cc(CCN(C(C)C)C(C)C)c2c1 [5-meo-dipt]	> 10	> 10	> 10	> 10	> 10	> 10	1.72	> 10	–	0.163	> 10	> 10	2.53	0.132	> 10
COc1ccc2[nH]cc(CCN(C)C(C)C)c2c1 [5-meo-mipt]	0.13	> 10	> 10	> 10	3.5	> 10	0.0225	> 10	0.448	0.0585	> 10	0.175	6.41	0.0123	6.33
CN(C)CCc1c[nH]c2cc(F)ccc12 [6-f-dmt]	0.0256	> 10	> 10	> 10	0.461	> 10	0.0554	> 10	–	0.0298	> 10	> 10	0.145	0.393	1.45
COc1cc(CC(C)N)c(OC)cc1C (stereo not drawn) [(+/-)2-(2,5-Dimethoxy-4-methyl-phenyl)-1-methyl-ethylamine]	8.15	> 10	> 10	> 10	3.54	> 10	0.209	> 10	0.507	0.0117	> 10	0.58	> 10	3.66	> 10
CC(C)N(CCc1c[nH]c2ccccc12)C(C)C [dipt]	> 10	> 10	> 10	> 10	> 10	> 10	3.74	> 10	> 10	0.398	> 10	> 10	1.26	0.12	> 10
